Legend:
[1] = Clearance in human liver microsomes assessed per mg protein for 5 mins in presence of NADPH by LC-MS/MS analysis; assay type: ADME, Microsome; conditions: read-out: CLH
Cytochrome P450 [2] = assay: Drug metabolism in human liver microsomes assessed as Km for cytochrome p450-mediated 2-(4-(2-((1H-Benzo[d]imidazol-2-yl)thio)ethyl)piperazin-1-yl)-N-(6-methyl-4-(methylsulfinyl)-2-(methylthio)pyridin-3-yl)acetamide formation; assay type: ADME
Cytochrome P450 [3] = assay: Drug metabolism in human liver microsomes assessed as Km for cytochrome p450-mediated 2-(4-(2-((1H-Benzo[d]imidazol-2-yl)thio)ethyl)piperazin-1-yl)-N-(6-methyl-2-(methyl-sulfinyl)-4-(methylthio)pyridin-3-yl)acetamide formation; assay type: ADME
Cytochrome P450 [4] = assay: Drug metabolism in human liver microsomes assessed as Km for cytochrome p450-mediated 2-(4-(2-((1H-Benzo[d]imidazol-2-yl)sulfinyl)ethyl)piperazin-1-yl)-N-(6-methyl-2,4-bis(methylthio)pyridin-3-yl)acetamide formation; assay type: ADME
Cytochrome P450 [5] = assay: Drug metabolism in human liver microsomes assessed as Km for cytochrome p450-mediated 2-(4-(2-((5-Hydroxy-1H-benzo[d]imidazol-2-yl)thio)ethyl)piperazin-1-yl)-N-(6-methyl-2,4-bis(methylthio)pyridin-3-yl)acetamide formation; assay type: ADME
Cytochrome P450 [6] = assay: Drug metabolism in human liver microsomes assessed as Vmax for cytochrome p450-mediated 2-(4-(2-((1H-Benzo[d]imidazol-2-yl)thio)ethyl)piperazin-1-yl)-N-(6-methyl-4-(methylsulfinyl)-2-(methylthio)pyridin-3-yl)acetamide formation; assay type: ADME
Cytochrome P450 [7] = assay: Drug metabolism in human liver microsomes assessed as Vmax for cytochrome p450-mediated 2-(4-(2-((1H-Benzo[d]imidazol-2-yl)thio)ethyl)piperazin-1-yl)-N-(6-methyl-2-(methyl-sulfinyl)-4-(methylthio)pyridin-3-yl)acetamide formation; assay type: ADME
Cytochrome P450 [8] = assay: Drug metabolism in human liver microsomes assessed as Vmax for cytochrome p450-mediated 2-(4-(2-((1H-Benzo[d]imidazol-2-yl)sulfinyl)ethyl)piperazin-1-yl)-N-(6-methyl-2,4-bis(methylthio)pyridin-3-yl)acetamide formation; assay type: ADME
Cytochrome P450 [9] = assay: Drug metabolism in human liver microsomes assessed as Vmax for cytochrome p450-mediated 2-(4-(2-((5-Hydroxy-1H-benzo[d]imidazol-2-yl)thio)ethyl)piperazin-1-yl)-N-(6-methyl-2,4-bis(methylthio)pyridin-3-yl)acetamide formation; assay type: ADME
[10] = Clearance in human liver microsomes assessed as 2-(4-(2-((1H-Benzo[d]imidazol-2-yl)thio)ethyl)piperazin-1-yl)-N-(6-methyl-4-(methylsulfinyl)-2-(methylthio)pyridin-3-yl)acetamide level per mg protein; assay type: ADME, Microsome
[11] = Clearance in human liver microsomes assessed as 2-(4-(2-((1H-Benzo[d]imidazol-2-yl)thio)ethyl)piperazin-1-yl)-N-(6-methyl-2-(methyl-sulfinyl)-4-(methylthio)pyridin-3-yl)acetamide level per mg protein; assay type: ADME, Microsome
[12] = Clearance in human liver microsomes assessed as 2-(4-(2-((1H-Benzo[d]imidazol-2-yl)sulfinyl)ethyl)piperazin-1-yl)-N-(6-methyl-2,4-bis(methylthio)pyridin-3-yl)acetamide level per mg protein; assay type: ADME, Microsome
[13] = Clearance in human liver microsomes assessed as 2-(4-(2-((5-Hydroxy-1H-benzo[d]imidazol-2-yl)thio)ethyl)piperazin-1-yl)-N-(6-methyl-2,4-bis(methylthio)pyridin-3-yl)acetamide level per mg protein; assay type: ADME, Microsome
Cytochrome P450 3A4 [14] = target: T1, Cytochrome P450 3A4 (Homo sapiens, UniProt P08684); assay: Drug metabolism in human liver microsomes assessed as CYP3A4-mediated 2-(4-(2-((1H-Benzo[d]imidazol-2-yl)thio)ethyl)piperazin-1-yl)-N-(6-methyl-4-(methylsulfinyl)-2-(methylthio)pyridin-3-yl)acetamide formation; assay type: ADME
Cytochrome P450 3A4 [15] = target: T1, Cytochrome P450 3A4; assay: Drug metabolism in human liver microsomes assessed as CYP3A4-mediated 2-(4-(2-((1H-Benzo[d]imidazol-2-yl)thio)ethyl)piperazin-1-yl)-N-(6-methyl-2-(methyl-sulfinyl)-4-(methylthio)pyridin-3-yl)acetamide formation; assay type: ADME
Cytochrome P450 3A4 [16] = target: T1, Cytochrome P450 3A4; assay: Drug metabolism in human liver microsomes assessed as CYP3A4-mediated 2-(4-(2-((1H-Benzo[d]imidazol-2-yl)sulfinyl)ethyl)piperazin-1-yl)-N-(6-methyl-2,4-bis(methylthio)pyridin-3-yl)acetamide formation; assay type: ADME
Cytochrome P450 3A4 [17] = target: T1, Cytochrome P450 3A4; assay: Drug metabolism in human liver microsomes assessed as CYP3A4-mediated 2-(4-(2-((5-Hydroxy-1H-benzo[d]imidazol-2-yl)thio)ethyl)piperazin-1-yl)-N-(6-methyl-2,4-bis(methylthio)pyridin-3-yl)acetamide formation; assay type: ADME
Cytochrome P450 3A5 [18] = target: T2, Cytochrome P450 3A5 (Homo sapiens, UniProt P20815); assay: Drug metabolism in human liver microsomes assessed as CYP3A5-mediated 2-(4-(2-((1H-Benzo[d]imidazol-2-yl)thio)ethyl)piperazin-1-yl)-N-(6-methyl-4-(methylsulfinyl)-2-(methylthio)pyridin-3-yl)acetamide formation; assay type: ADME
Cytochrome P450 3A5 [19] = target: T2, Cytochrome P450 3A5; assay: Drug metabolism in human liver microsomes assessed as CYP3A5-mediated 2-(4-(2-((1H-Benzo[d]imidazol-2-yl)thio)ethyl)piperazin-1-yl)-N-(6-methyl-2-(methyl-sulfinyl)-4-(methylthio)pyridin-3-yl)acetamide formation; assay type: ADME
Cytochrome P450 3A5 [20] = target: T2, Cytochrome P450 3A5; assay: Drug metabolism in human liver microsomes assessed as CYP3A5-mediated 2-(4-(2-((1H-Benzo[d]imidazol-2-yl)sulfinyl)ethyl)piperazin-1-yl)-N-(6-methyl-2,4-bis(methylthio)pyridin-3-yl)acetamide formation; assay type: ADME
Cytochrome P450 3A5 [21] = target: T2, Cytochrome P450 3A5; assay: Drug metabolism in human liver microsomes assessed as CYP3A5-mediated 2-(4-(2-((5-Hydroxy-1H-benzo[d]imidazol-2-yl)thio)ethyl)piperazin-1-yl)-N-(6-methyl-2,4-bis(methylthio)pyridin-3-yl)acetamide formation; assay type: ADME
Cytochrome P450 2C9 [22] = target: T3, Cytochrome P450 2C9 (Homo sapiens, UniProt P11712); assay: Drug metabolism in human liver microsomes assessed as CYP2C9-mediated 2-(4-(2-((1H-Benzo[d]imidazol-2-yl)thio)ethyl)piperazin-1-yl)-N-(6-methyl-4-(methylsulfinyl)-2-(methylthio)pyridin-3-yl)acetamide formation; assay type: ADME
Cytochrome P450 2C9 [23] = target: T3, Cytochrome P450 2C9; assay: Drug metabolism in human liver microsomes assessed as CYP2C9-mediated 2-(4-(2-((1H-Benzo[d]imidazol-2-yl)thio)ethyl)piperazin-1-yl)-N-(6-methyl-2-(methyl-sulfinyl)-4-(methylthio)pyridin-3-yl)acetamide formation; assay type: ADME
Cytochrome P450 2C9 [24] = target: T3, Cytochrome P450 2C9; assay: Drug metabolism in human liver microsomes assessed as CYP2C9-mediated 2-(4-(2-((1H-Benzo[d]imidazol-2-yl)sulfinyl)ethyl)piperazin-1-yl)-N-(6-methyl-2,4-bis(methylthio)pyridin-3-yl)acetamide formation; assay type: ADME
Cytochrome P450 2C9 [25] = target: T3, Cytochrome P450 2C9; assay: Drug metabolism in human liver microsomes assessed as CYP2C9-mediated 2-(4-(2-((5-Hydroxy-1H-benzo[d]imidazol-2-yl)thio)ethyl)piperazin-1-yl)-N-(6-methyl-2,4-bis(methylthio)pyridin-3-yl)acetamide formation; assay type: ADME
Cytochrome P450 2D6 = Cytochrome P450 2D6 (Homo sapiens, UniProt P10635); assay: Drug metabolism in human liver microsomes assessed as CYP2D6-mediated 2-(4-(2-((1H-Benzo[d]imidazol-2-yl)thio)ethyl)piperazin-1-yl)-N-(6-methyl-4-(methylsulfinyl)-2-(methylthio)pyridin-3-yl)acetamide formation; assay type: ADME
Cytochrome P450 3A2 [26] = target: T4, Cytochrome P450 3A2 (Rattus norvegicus, UniProt P05183); assay: Drug metabolism in male rat liver microsomes assessed as CYP3A2-mediated 2-(4-(2-((1H-Benzo[d]imidazol-2-yl)thio)ethyl)piperazin-1-yl)-N-(6-methyl-4-(methylsulfinyl)-2-(methylthio)pyridin-3-yl)acetamide formation; assay type: ADME
T4 sequence (P05183 whole entry): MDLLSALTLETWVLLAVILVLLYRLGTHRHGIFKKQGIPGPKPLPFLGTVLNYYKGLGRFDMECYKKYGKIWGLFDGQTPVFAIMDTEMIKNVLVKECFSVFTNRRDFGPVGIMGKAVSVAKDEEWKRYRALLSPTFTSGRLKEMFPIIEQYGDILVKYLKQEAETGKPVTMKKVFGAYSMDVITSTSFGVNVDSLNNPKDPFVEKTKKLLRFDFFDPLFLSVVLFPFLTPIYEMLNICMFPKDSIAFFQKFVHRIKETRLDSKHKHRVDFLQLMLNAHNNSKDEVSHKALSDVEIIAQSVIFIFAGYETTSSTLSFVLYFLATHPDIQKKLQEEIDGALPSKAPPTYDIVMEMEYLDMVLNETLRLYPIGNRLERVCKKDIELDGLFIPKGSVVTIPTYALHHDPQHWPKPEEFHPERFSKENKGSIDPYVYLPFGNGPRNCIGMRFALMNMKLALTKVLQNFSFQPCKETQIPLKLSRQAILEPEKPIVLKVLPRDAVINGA

Cytochrome P450 3A2 [27] = target: T4, Cytochrome P450 3A2; assay: Drug metabolism in male rat liver microsomes assessed as CYP3A2-mediated 2-(4-(2-((1H-Benzo[d]imidazol-2-yl)thio)ethyl)piperazin-1-yl)-N-(6-methyl-2-(methyl-sulfinyl)-4-(methylthio)pyridin-3-yl)acetamide formation; assay type: ADME
[28] = Metabolic stability in female rat liver microsomes assessed as parent compound remaining; assay type: ADME, Microsome
Cytochrome P450 2C11 = target: T5, Cytochrome P450 2C11 (Rattus norvegicus, UniProt P08683); assay: Drug metabolism in […] rat liver microsomes assessed as CYP2C11-mediated 2-(4-(2-((1H-Benzo[d]imidazol-2-yl)thio)ethyl)piperazin-1-yl)-N-(6-methyl-4-(methylsulfinyl)-2-(methylthio)pyridin-3-yl)acetamide formation; assay type: ADME
T5 sequence (P08683 whole entry): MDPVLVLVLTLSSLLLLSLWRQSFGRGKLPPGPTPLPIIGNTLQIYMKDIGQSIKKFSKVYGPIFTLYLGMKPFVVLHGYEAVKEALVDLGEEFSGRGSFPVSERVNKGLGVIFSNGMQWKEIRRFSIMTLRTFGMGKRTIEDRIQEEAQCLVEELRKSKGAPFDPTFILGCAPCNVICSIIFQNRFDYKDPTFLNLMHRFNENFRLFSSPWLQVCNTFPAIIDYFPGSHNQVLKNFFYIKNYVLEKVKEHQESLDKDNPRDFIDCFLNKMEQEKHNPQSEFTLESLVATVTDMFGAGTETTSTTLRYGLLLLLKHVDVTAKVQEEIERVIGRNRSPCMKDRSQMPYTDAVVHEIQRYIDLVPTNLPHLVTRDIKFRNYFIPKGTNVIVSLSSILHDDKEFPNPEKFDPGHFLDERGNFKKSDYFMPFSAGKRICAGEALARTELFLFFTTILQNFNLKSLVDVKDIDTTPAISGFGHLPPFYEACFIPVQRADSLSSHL

[29] = Metabolic stability in male rat liver microsomes assessed as assessed as parent compound remaining; assay type: ADME, Microsome
[30] = Metabolic stability in cynomolgus monkey plasma assessed as parent compound remaining formation at 10 mg/kg, administered into stomach using nasogastric catheter measured upto 360 mins by column-switching HPLC method; assay type: ADME, organism-based, Macaca fascicularis; conditions: in vivo, po, 6 h
[31] = Drug metabolism in cynomolgus monkey plasma assessed as 2-(4-(2-((1H-Benzo[d]imidazol-2-yl)thio)ethyl)piperazin-1-yl)-N-(6-methyl-4-(methylsulfinyl)-2-(methylthio)pyridin-3-yl)acetamide formation at 10 mg/kg, administered into stomach using nasogastric catheter measured upto 360 mins by column-switching HPLC method; assay type: ADME, organism-based, Macaca fascicularis; conditions: in vivo, po, 6 h
[32] = Drug metabolism in cynomolgus monkey plasma assessed as 2-(4-(2-((1H-Benzo[d]imidazol-2-yl)thio)ethyl)piperazin-1-yl)-N-(6-methyl-2-(methyl-sulfinyl)-4-(methylthio)pyridin-3-yl)acetamide formation at 10 mg/kg, administered into stomach using nasogastric catheter measured upto 360 mins by column-switching HPLC method; assay type: ADME, organism-based, Macaca fascicularis; conditions: in vivo, po, 6 h
[33] = Drug metabolism in cynomolgus monkey plasma assessed as 2-(4-(2-((5-Hydroxy-1H-benzo[d]imidazol-2-yl)thio)ethyl)piperazin-1-yl)-N-(6-methyl-2,4-bis(methylthio)pyridin-3-yl)acetamide formation at 10 mg/kg, administered into stomach using nasogastric catheter measured upto 360 mins by column-switching HPLC method; assay type: ADME, organism-based, Macaca fascicularis; conditions: in vivo, po, 6 h
[34] = Drug metabolism in cynomolgus monkey plasma assessed as 2-(4-(2-((1H-Benzo[d]imidazol-2-yl)sulfinyl)ethyl)piperazin-1-yl)-N-(6-methyl-2,4-bis(methylthio)pyridin-3-yl)acetamide formation at 10 mg/kg, administered into stomach using nasogastric catheter measured upto 360 mins by column-switching HPLC method; assay type: ADME, organism-based, Macaca fascicularis; conditions: in vivo, po, 6 h

T1 sequence (P08684 whole entry): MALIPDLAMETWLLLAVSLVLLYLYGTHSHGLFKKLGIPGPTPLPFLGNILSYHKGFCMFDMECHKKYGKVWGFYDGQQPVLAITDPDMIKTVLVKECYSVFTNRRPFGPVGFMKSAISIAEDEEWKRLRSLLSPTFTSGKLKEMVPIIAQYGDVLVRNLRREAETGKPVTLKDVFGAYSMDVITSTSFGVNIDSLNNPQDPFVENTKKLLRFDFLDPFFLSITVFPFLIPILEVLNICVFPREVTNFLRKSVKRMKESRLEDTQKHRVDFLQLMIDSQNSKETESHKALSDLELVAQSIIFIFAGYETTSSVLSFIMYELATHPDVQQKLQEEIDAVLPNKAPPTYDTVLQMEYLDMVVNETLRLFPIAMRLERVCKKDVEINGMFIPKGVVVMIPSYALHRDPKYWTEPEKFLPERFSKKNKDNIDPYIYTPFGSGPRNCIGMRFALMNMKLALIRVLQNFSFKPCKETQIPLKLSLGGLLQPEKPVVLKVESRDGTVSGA
T3 sequence (P11712 whole entry): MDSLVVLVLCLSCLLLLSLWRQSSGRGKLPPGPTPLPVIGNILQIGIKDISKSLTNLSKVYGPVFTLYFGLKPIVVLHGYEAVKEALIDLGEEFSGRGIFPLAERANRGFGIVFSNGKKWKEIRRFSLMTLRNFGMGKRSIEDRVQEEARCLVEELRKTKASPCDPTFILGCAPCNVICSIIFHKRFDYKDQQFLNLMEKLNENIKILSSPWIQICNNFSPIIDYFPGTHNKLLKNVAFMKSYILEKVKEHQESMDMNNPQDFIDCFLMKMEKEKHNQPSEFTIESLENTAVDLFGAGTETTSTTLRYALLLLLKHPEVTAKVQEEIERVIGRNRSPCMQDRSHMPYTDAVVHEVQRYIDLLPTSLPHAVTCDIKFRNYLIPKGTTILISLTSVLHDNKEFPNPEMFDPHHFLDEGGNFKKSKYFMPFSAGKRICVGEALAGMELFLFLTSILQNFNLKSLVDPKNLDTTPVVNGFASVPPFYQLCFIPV
T2 sequence (P20815 whole entry): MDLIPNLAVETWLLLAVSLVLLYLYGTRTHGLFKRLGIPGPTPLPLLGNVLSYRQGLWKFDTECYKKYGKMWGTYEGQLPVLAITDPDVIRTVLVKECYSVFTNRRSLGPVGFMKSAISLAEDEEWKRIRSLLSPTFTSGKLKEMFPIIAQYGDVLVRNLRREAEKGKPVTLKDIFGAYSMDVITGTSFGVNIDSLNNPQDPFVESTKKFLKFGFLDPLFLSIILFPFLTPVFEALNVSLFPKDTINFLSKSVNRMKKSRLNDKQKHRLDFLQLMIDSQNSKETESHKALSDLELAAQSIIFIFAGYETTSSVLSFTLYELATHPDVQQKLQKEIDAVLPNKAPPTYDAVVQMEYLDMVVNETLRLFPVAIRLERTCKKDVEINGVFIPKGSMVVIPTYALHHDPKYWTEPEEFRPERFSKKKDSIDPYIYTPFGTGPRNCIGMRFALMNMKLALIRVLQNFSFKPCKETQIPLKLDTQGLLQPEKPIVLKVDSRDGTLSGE
Cytochrome P450 2D6, sequence (P10635 whole entry): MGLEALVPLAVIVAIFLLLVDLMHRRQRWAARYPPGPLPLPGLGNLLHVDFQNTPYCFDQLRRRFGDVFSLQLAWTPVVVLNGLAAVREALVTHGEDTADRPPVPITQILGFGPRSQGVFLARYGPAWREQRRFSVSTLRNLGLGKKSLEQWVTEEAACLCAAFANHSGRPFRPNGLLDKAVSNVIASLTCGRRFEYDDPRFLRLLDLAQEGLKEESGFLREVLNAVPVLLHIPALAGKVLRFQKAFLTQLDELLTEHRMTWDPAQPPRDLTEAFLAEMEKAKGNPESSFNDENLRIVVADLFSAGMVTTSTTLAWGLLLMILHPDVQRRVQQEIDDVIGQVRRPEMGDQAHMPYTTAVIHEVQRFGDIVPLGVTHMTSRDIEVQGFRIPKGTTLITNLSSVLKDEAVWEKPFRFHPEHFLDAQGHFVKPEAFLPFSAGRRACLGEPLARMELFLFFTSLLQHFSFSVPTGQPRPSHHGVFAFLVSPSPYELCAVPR

CSc1cc(C)nc(SC)c1NC(=O)CN1CCN(CCSc2nc3ccccc3[nH]2)CC1.Cl
microsomal CLint [1]: 720 µL/min/mg | Km (Cytochrome P450 [2]): 1.3 µM | Km (Cytochrome P450 [3]): 4.3 µM | Km (Cytochrome P450 [4]): 2.6 µM | Km (Cytochrome P450 [5]): 2 µM | Vmax (Cytochrome P450 [6]): 1773 pmol/min/mg | Vmax (Cytochrome P450 [7]): 363 pmol/min/mg | Vmax (Cytochrome P450 [8]): 558 pmol/min/mg | Vmax (Cytochrome P450 [9]): 343 pmol/min/mg | CLH [10]: 1353 µL/min | CLH [11]: 125 µL/min | CLH [12]: 219 µL/min | CLH [13]: 168 µL/min | Drug metabolism (Cytochrome P450 3A4 [14]): Metabolite_Detected | Drug metabolism (Cytochrome P450 3A4 [15]): Metabolite_Detected | Drug metabolism (Cytochrome P450 3A4 [16]): Metabolite_Detected | Drug metabolism (Cytochrome P450 3A4 [17]): Metabolite_Detected | Drug metabolism (Cytochrome P450 3A5 [18]): Metabolite_Detected | Drug metabolism (Cytochrome P450 3A5 [19]): Metabolite_Detected | Drug metabolism (Cytochrome P450 3A5 [20]): Metabolite_Detected | Drug metabolism (Cytochrome P450 3A5 [21]): Metabolite_Detected | Drug metabolism (Cytochrome P450 2C9 [22]): Metabolite_Notdetected | Drug metabolism (Cytochrome P450 2C9 [23]): Metabolite_Notdetected | Drug metabolism (Cytochrome P450 2C9 [24]): Metabolite_Notdetected | Drug metabolism (Cytochrome P450 2C9 [25]): Metabolite_Notdetected | Drug metabolism (Cytochrome P450 2D6): Metabolite_Detected | Drug metabolism (Cytochrome P450 3A2 [26]): Metabolite_Detected | Drug metabolism (Cytochrome P450 3A2 [27]): Metabolite_Detected | Stabilty [28]: 76.1% | Drug metabolism (Cytochrome P450 2C11): Metabolite_Notdetected | Stabilty [29]: 5.2% | Stabilty [30]: Stable | Drug metabolism [31]: Metabolite_Detected | Drug metabolism [32]: Metabolite_Notdetected | Drug metabolism [33]: Metabolite_Detected | Drug metabolism [34]: Metabolite_Detected
